This note sets out measurements from patent publication US8067424B2, “Selective inhibitors for cyclin-dependent kinases” (Emory University, priority 2007, dated 2011).

Where two headings read alike, the source gives them in different places.

Common to all, as to assay type: biochemical
One test addresses PRK2 (Homo sapiens, UniProt Q16513). The experiment in a line: Kinase screen: PRK2 assay. The procedure:
(§1) Generally, the same procedure was used for all assays. Since the total assay volume was 25.5 microliters, 0.5 microliters of inhibitors at 51× assay concentration were added to the plates before any other addition.
(§2) The basic procedure was to add 0.5 microliters inhibitor/control in DMSO to plate. Fifteen microliters of enzyme/substrate/buffer mix were added and incubated for 5 min. Ten microliters MgATP at the relevant concentration were added and incubated for 30 min. The assay was stopped by adding 5 microliters of 3% orthophosphoric acid. The assay was transferred to a p81 filter plate and read in a scintillation counter of 30 sec/well. Note that this assay procedure was not followed for MKK1, which instead involved a two-step assay, and PKC alpha, which required the addition of lipid vesicles.
PRK2 assay: 5-20 mU of PRK2 (diluted in 50 mM Tris (pH 7.5), 0.1 mM EGTA, 1 mg/ml BSA, 0.1%, b-Mercaptoethanol) was assayed against Long S6 peptide ([…]) (SEQ ID NO: 10) in a final volume of 25.5 μl containing 50 mM Tris (pH 7.5), 0.1 mM EGTA, 0.1%, b-Mercaptoethanol, 30 μM Long S6 peptide, 10 mM magnesium acetate and 0.005 mM [33P-g-ATP] (500-1000 cpm/pmole) and incubated for 30 mins at room temperature. Assays were stopped by addition of 5 μl of 0.5M (3%) orthophosphoric acid. Assays were harvested onto P81 Unifilter plates using a wash buffer of 50 mM orthophosphoric acid.

For a further test, the target named is PKCα (Homo sapiens, UniProt P17252). Description: Kinase screen: PKCa assay. The procedure: as §1, §2
PKCa assay: PKCa (5-20 mU diluted in 20 mM Hepes pH 7.4, 0.03% Triton X-100) was assayed against Histone H1 in the presence of PtdSerine and DAG (0.1 mg/ml. and 10 μg/ml) and 0.1 mM CaCl2. The assay was carried out in a final volume of 25.5 μl containing 20 mM Hepes pH 7.4, 0.03% Triton X-100, 0.1 mg/ml Histone H1, 10 mM magnesium acetate and 0.02 mM[33P-g-ATP] (50-1000 cpm/pmole) and incubated for 30 min at room temperature. Assays were stopped by addition of 5 μl of 0.5 M (3%) orthophosphoric acid and then harvested onto P81 Unifilter plates with a wash buffer of 50 mM orthophosphoric acid.
PtdSer/DAG preparation: PtdSer stock was 10 mg/ml in MeOH/Chloroform (1:2). The required amount was dried down and re-suspended in an appropriate volume of 10 mM Hepes pH 7.4, vortexed, and briefly sonicated (2×10^−15 seconds at 10-15 seconds apart). DAG stock was 10 mg/ml in MeOH/chloroform (1:2). The required amount was dried down and sonicated PtdSer solution was added, vortexed and sonicated.

The next test concerns the target T1, BRSK2 (Homo sapiens, UniProt Q8IWQ3).
T1 sequence (Q8IWQ3 1-736): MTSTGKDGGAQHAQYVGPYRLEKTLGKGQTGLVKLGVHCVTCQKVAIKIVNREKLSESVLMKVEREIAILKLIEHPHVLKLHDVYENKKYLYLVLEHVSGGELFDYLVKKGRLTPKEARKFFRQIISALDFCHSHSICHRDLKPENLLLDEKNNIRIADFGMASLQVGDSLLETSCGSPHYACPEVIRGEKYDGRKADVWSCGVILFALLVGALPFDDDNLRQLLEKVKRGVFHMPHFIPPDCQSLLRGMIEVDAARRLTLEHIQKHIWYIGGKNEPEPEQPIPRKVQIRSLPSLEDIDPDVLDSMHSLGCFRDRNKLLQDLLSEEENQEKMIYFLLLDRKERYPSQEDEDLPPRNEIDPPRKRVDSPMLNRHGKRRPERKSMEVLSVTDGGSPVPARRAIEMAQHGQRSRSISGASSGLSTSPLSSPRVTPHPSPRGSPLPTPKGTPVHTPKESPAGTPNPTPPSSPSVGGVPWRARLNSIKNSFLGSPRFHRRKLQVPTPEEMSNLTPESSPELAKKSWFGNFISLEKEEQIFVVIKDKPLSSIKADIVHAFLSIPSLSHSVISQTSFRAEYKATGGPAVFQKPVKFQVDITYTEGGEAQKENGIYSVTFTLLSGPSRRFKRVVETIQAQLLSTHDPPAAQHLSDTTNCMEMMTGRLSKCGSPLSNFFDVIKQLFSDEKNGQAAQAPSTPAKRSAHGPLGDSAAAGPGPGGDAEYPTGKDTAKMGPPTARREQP
The experiment in a line: Kinase screen: BRSK2 assay. The procedure: as §1, §2
BRSK2 assay: BRSK2 (5-20 mU diluted in 50 mM Tris pH 7.5, 0.1 mM EGTA, 0.1% b-mercaptoethanol, 1 mg/ml BSA) was assayed against a substrate peptide ([…]) (SEQ ID NO: 33) in a final volume of 25.5 μl containing 50 mM Tris pH 7.5, 0.05% b-mercaptoethanol, 300 μM substrate peptide, 10 mM magnesium acetate and 0.05 mM [33P-g-ATP] (50-1000 cpm/pmole) and incubated for 30 min at room temperature. Assays were stopped by addition of 5 μl of 0.5 M (3%) orthophosphoric acid and then harvested onto P81 Unifilter plates with a wash buffer of 50 mM orthophosphoric acid.

The target of another test is DYRK1A (Homo sapiens, UniProt Q13627). Description: Kinase screen: DYRK 1A assay. Here is the method:
as §1, §2
(50-1000 cpm/pmole) and incubated for 30 min at room temperature. Assays were stopped by addition of 5 μl of 0.5 M (3%) orthophosphoric acid and then harvested onto P81 Unifilter plates with a wash buffer of 50 mM orthophosphoric acid.

In another test the target is PAK6 (Homo sapiens, UniProt Q9NQU5). Description: Kinase screen: PAK6 assay. Here is the method: as §1, §2
PAK6 assay: PAK6 (5-20 mU diluted in 50 mM Tris pH 7.5, 0.1 mM EGTA, 0.1% b-mercaptoethanol, 1 mg/ml BSA) was assayed against a substrate peptide ([…]) (SEQ ID NO: 30) in a final volume of 25.5 μl containing 50 mM Tris pH 7.5, 0.05% b-mercaptoethanol, 300 μM substrate peptide, 10 mM magnesium acetate and 0.02 mM [33P-g-ATP] (50-1000 cpm/pmole) and incubated for 30 min at room temperature. Assays were stopped by addition of 5 μl of 0.5 M (3%) orthophosphoric acid and then harvested onto P81 Unifilter plates with a wash buffer of 50 mM orthophosphoric acid.

Setting [1] is: 10 micromolar compound, read-out: mean activity remaining (as a percentage of the original activity), PRK2.
Where [2] appears, read: 10 micromolar compound, read-out: mean activity remaining (as a percentage of the original activity), PKCa.
The mark [3] stands for this setting: 10 micromolar compound, read-out: mean activity remaining (as a percentage of the original activity), BRSK 2.
The mark [4] stands for this setting: 10 micromolar compound, read-out: mean activity remaining (as a percentage of the original activity), DYRK 1A.
The mark [5] stands for this setting: 10 micromolar compound, read-out: mean activity remaining (as a percentage of the original activity), PAK6.

One may read the remaining activity as the signal under treatment as a percentage of the control signal. One may read the IC50 as the concentration needed to halve the response being measured. Read a low IC50 as greater potency in that assay. As to `CC(C)c1cnn2c(NCc3ccccc3)cc(NCCCCCCCN)nc12` [BS-181], the remaining activity at 10 µM on PRK2 (PRK2, 10 μM, read-out: Mean Remaining Enzyme Activity (%)) is 90%; on PKCα (PKCα, 10 μM, read-out: Mean Remaining Enzyme Activity (%)), 98%; at BRSK2 (BRSK2, 10 μM, read-out: Mean Remaining Enzyme Activity (%)), 98%; at DYRK1A (DYRK1A, 10 μM, read-out: Mean Remaining Enzyme Activity (%)) it was 17%; at PAK6 (PAK6, 10 μM, read-out: Mean Remaining Enzyme Activity (%)), 95%. Further, inhibition against DYRK1A (kinase screen) was half-maximal at 2300 nM (IC50).

`C=C[C@H](CO)Nc1cc(NCc2ccccc2)n2ncc(C(C)C)c2n1` [ICEC0065]: the remaining activity at 10 µM on PRK2 (setting [1]) turned out to be 105%; on PKCα (setting [2]), 101%; on BRSK2 (setting [3]), 76%; on DYRK1A (setting [4]) it was 30%; on PAK6 (setting [5]), 82%.

As for `CC(C)c1cnn2c(NCc3ccccc3)cc(N[C@@H](CO)[C@H](O)CO)nc12` [ICEC0318, (3S)-3-(7-(Benzylamino)-3-isopropylpyrazolo[1,5-a]pyrimidin-5-ylamino)butane-1,2,4-triol], the remaining activity at 10 µM on PRK2 (setting [1]) was 106%; at PKCα (setting [2]), 96%; at BRSK2 (setting [3]) it was 108%; on DYRK1A (setting [4]) it was 15%; on PAK6 (setting [5]), 85%.

Consider `CC(C)c1cnn2c(NCc3ccccc3F)cc(NCCCCCN)nc12` [ICEC-0232], for which, on PRK2 (10 micromolar compound), the “mean activity remaining (as a percentage of the original activity), PRK2” value is 106%. The “mean activity remaining (as a percentage of the original activity), PKCa” value on PKCα (10 micromolar compound) was determined as 80%. Moreover, the “mean activity remaining (as a percentage of the original activity), BRSK 2” value at BRSK2 (10 micromolar compound) is 81%. For the same compound, the “mean activity remaining (as a percentage of the original activity), DYRK 1A” value on DYRK1A (10 micromolar compound) is 11%. Moreover, at PAK6 (10 micromolar compound), the “mean activity remaining (as a percentage of the original activity), PAK6” value worked out at 85%.

For `CC[C@H](CO)Nc1cc(NCc2ccccc2)n2ncc(C(C)C)c2n1` [ICEC0067], the remaining activity at 10 µM at PRK2 (setting [1]) is 96%; at PKCα (setting [2]) it was 93%; at BRSK2 (setting [3]), 76%; on DYRK1A (setting [4]) it was 27%; at PAK6 (setting [5]) it was 78%.
